Patent US8492559B2, “Substituted indole compounds” (Gruenenthal GmbH, priority 2009, dated 2013)

The molecules below were run against T1, human B1R receptor (hB1R) (Homo sapiens, UniProt P46663) (assay: Functional investigation on the bradykinin 1 receptor (B1R), FLIPR Ca2+ assay, hB1R cells). Details: 10 μM test substance; CHO K1 cells with human B1R; agonist Lys-Des-Arg9 bradykinin; % of maximum achievable inhibition.
T1 construct: expressed in transfected cells; host or cells: CHO K1 cells
T1 sequence (P46663 1-353): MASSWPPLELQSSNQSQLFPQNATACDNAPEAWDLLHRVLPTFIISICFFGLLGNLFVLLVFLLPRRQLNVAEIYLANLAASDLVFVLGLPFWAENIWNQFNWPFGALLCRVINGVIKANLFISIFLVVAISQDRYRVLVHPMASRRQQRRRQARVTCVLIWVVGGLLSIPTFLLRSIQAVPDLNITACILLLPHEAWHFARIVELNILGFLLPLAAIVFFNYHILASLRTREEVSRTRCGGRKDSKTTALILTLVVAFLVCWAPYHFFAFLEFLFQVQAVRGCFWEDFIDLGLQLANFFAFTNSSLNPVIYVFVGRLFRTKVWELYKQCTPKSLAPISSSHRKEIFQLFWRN
Format: cell-based
Description: The agonistic or antagonistic action of substances can be quantified on the bradykinin 1 receptor (B1R) of the human and rat species with ectopically expressing cell lines (CHO K1 cells) and with the aid of a Ca^2+-sensitive dye (Fluo-4) using a fluorescent imaging plate reader (FLIPR). The indication in % activation is based on the Ca^2+ signal after addition of Lys-Des-Arg^9 bradykinin (0.5 nM) or Des-Arg^9 bradykinin (100 nM). Antagonists lead to a suppression of the Ca^2+ influx following administration of the agonist. The % inhibition in comparison with the maximum achievable inhibition is indicated.
1. Functional Investigation on the Bradykinin 1 Receptor (B1R)
The agonistic or antagonistic action of substances can be determined on the bradykinin 1 receptor (B1R) of the human and rat species with the following assay. According to this assay, the Ca^2+ inflow through the channel is quantified with the aid of a Ca^2+-sensitive dye (Fluo-4 type, Molecular Probes Europe BV, Leiden, Netherlands) in a fluorescent imaging plate reader (FLIPR, Molecular Devices, Sunnyvale, USA).
Chinese hamster ovary cells (CHO K1 cells) which are stably transfected with the human B1R gene (hB1R cells) or the B1R gene of the rat (rB1R cells) are used. For functional investigations these cells are plated-out onto black 96-well plates with a clear base (BD Biosciences, Heidelberg, Germany or Greiner, Frickenhausen, Germany) in a density of 20,000-35,000 cells/well. Overnight the cells are incubated at 37° C. and 5% CO2 in culture medium (hB1R cells: Ham's Nutrient Mixture F12, Gibco Invitrogen GmbH, Karlsruhe, Germany or DMEM, Sigma-Aldrich, Taufkirchen, Germany; rB1R cells: D-MEM/F12, Gibco Invitrogen, Karlsruhe, Germany) with 10 vol. % FBS (foetal bovine serum, Gibco Invitrogen GmbH, Karlsruhe, Germany or PAN Biotech GmbH, Aidenbach, Germany).
On the following day the cells are loaded with 2.13 μM Fluo-4 (Molecular Probes Europe BV, Leiden, Netherlands) in HBSS buffer (Hank's buffered saline solution, Gibco Invitrogen GmbH, Karlsruhe, Germany) with 2.5 mM probenecid (Sigma-Aldrich, Taufkirchen, Germany) and 10 mM HEPES (Sigma-Aldrich, Taufkirchen, Germany) for 60 min at 37° C. The plates are subsequently washed twice with HBSS buffer, and HBSS buffer which additionally contains 0.1% BSA (bovine serum albumin; Sigma-Aldrich, Taufkirchen, Germany), 5.6 mM glucose and 0.05% gelatine (Merck KGaA, Darmstadt, Germany) is added. After a further incubation of 20 minutes at room temperature, the plates are inserted into the FLIPR for Ca^2+ measurement.
Alternatively they are washed with buffer A (15 mM HEPES, 80 mM NaCl, 5 mM KCl, 1.2 mM CaCl2, 0.7 mM MgSO4, 2 g/l glucose, 2.5 mM probenecid) and loaded with buffer A with added 2.5 μM Fluo-4 and 0.025% Pluronic F127 (Sigma-Aldrich, Taufkirchen, Germany). The cells are then washed twice with buffer A and incubated for 30 minutes with buffer A, which additionally contains 0.05% BSA and 0.05% gelatine, at room temperature and then used for Ca^2+ measurement in the FLIPR. The Ca^2+-dependent fluorescence is measured here before and after addition of substances (λex=488 nm, λem=540 nm). The quantification is performed by measuring the highest fluorescence intensity (FC, fluorescence counts) over time.
The FLIPR protocol comprises two additions of substance. Test substances (10 μM) are first pipetted onto the cells and the Ca^2+ inflow is compared with the control (hB1R: Lys-Des-Arg^9 bradykinin>=50 nM; rB1R: Des-Arg^9 bradykinin 10 μM). The value in % activation based on the Ca^2+ signal after addition of Lys-Des-Arg^9 bradykinin (>=50 nM) or Des-Arg^9 bradykinin (10 μM) is obtained therefrom. After incubation for 10-20 minutes, Lys-Des-Arg^9 bradykinin (hB1R) or Des-Arg^9 bradykinin (rB1R) is applied in the EC80 concentration and the inflow of Ca^2+ is likewise determined.
Antagonists lead to a suppression of the Ca^2+ inflow. The % inhibition in comparison with the maximum achievable inhibition is calculated. […]

**Q.** How did the “B1R antagonism, human [10 μM] % inhibition” value turn out when COc1cc(C)c(S(=O)(=O)Nc2cccc3ccn(CC(=O)N4CCC5(CC4)CCN(c4ccncc4)CC5)c23)c(C)c1 [Compound G-05, 4-Methoxy-2,6-dimethyl-N-[1-[2-oxo-2-(9-pyridin-4-yl-3,9-diazaspiro[5.5]undecan-3-yl)-ethyl]-1H-indol-7-yl]-benzenesulfonic acid amide] was run?
**A.** 100%

Same assay, conditions: CHO-K1, 10 μM test substance; CHO K1 cells with human B1R; agonist Lys-Des-Arg9 bradykinin; % of maximum achievable inhibition; read-out: B1R antagonism, human [10 μM] % inhibition

**Q.** How did the inhibition at 10 µM turn out when COc1cc(C)c(S(=O)(=O)Nc2ccc3ccn(CC(=O)N4CCC(CCN5CCCC5)CC4)c3c2)c(C)c1 [Compound G-01, 4-Methoxy-2,6-dimethyl-N-[1-[2-oxo-2-[4-(2-pyrrolidin-1-yl-ethyl)-piperidin-1-yl]-ethyl]-1H-indol-6-yl]-benzenesulfonic acid amide] was run?
**A.** 98%

**Q.** For COc1cc(C)c(S(=O)(=O)Nc2cccc3ccn(CC(=O)N4CCC(CCN5CCCC5)CC4)c23)c(C)c1 [Compound G-02, 4-Methoxy-2,6-dimethyl-N-[1-[2-oxo-2-[4-(2-pyrrolidin-1-yl-ethyl)-piperidin-1-yl]-ethyl]-1H-indol-7-yl]-benzenesulfonic acid amide], which inhibition at 10 µM is on record?
**A.** 95%

**Q.** Which inhibition at 10 µM does the source give for COc1cc(C)c(S(=O)(=O)Nc2cccc3ccn(CC(=O)N4CCC5(CC4)C(=O)NCN5c4ccccc4)c23)c(C)c1 [Compound G-04, 4-Methoxy-2,6-dimethyl-N-[1-[2-oxo-2-(1-oxo-4-phenyl-2,4,8-triazaspiro[4.5]decan-8-yl)-ethyl]-1H-indol-7-yl]-benzenesulfonic acid amide] here?
**A.** 68%

**Q.** How did the inhibition at 10 µM turn out when COc1cc(C)c(S(=O)(=O)Nc2cccc3ccn(CC(=O)N4CCC(OCCN5CCCC5)(c5cccnc5)CC4)c23)c(C)c1 [Compound G-06, 4-Methoxy-2,6-dimethyl-N-[1-[2-oxo-2-[4-pyridin-3-yl-4-(2-pyrrolidin-1-yl-ethoxy)-piperidin-1-yl]-ethyl]-1H-indol-7-yl]-benzenesulfonic acid amide] was run?
**A.** 83%

**Q.** How did the inhibition at 10 µM turn out when O=C(CCn1ccc2ccc(N3Cc4cccc(Cl)c4C3=O)cc21)N1CCC2(CC1)CCN(c1ccncc1)CC2 [Compound G-07, 7-Chloro-2-[1-[3-oxo-3-(9-pyridin-4-yl-3,9-diazaspiro[5.5]undecan-3-yl)-propyl]-1H-indol-6-yl]-2,3-dihydro-isoindol-1-one] was run?
**A.** 96%

**Q.** O=C(Cn1ccc2ccc(N3Cc4cccc(Cl)c4C3=O)cc21)N1CCC2(CC1)CCN(c1ccncc1)CC2 [Compound G-08, 7-Chloro-2-[1-[2-oxo-2-(9-pyridin-4-yl-3,9-diazaspiro[5.5]undecan-3-yl)-ethyl]-1H-indol-6-yl]-2,3-dihydro-isoindol-1-one] was tested. Which inhibition at 10 µM did it give?
**A.** 98%

**Q.** For O=C(CCn1ccc2cccc(N3Cc4cccc(Cl)c4C3=O)c21)N1CCC2(CC1)CCN(c1ccncc1)CC2 [Compound G-10, 7-Chloro-2-(1-(3-oxo-3-(9-(pyridin-4-yl)-3,9-diazaspiro[5.5]undecan-3-yl)propyl)-1H-indol-7-yl)isoindolin-1-one], which inhibition at 10 µM is on record?
**A.** 100%

**Q.** O=C(Cn1ccc2cccc(N3Cc4cccc(Cl)c4C3=O)c21)N1CCC2(CC1)CCN(c1ccncc1)CC2 [Compound G-11, 7-Chloro-2-(1-(2-oxo-2-(9-(pyridin-4-yl)-3,9-diazaspiro[5.5]undecan-3-yl)ethyl)-1H-indol-7-yl)isoindolin-1-one] was tested. Which inhibition at 10 µM did it give?
**A.** 46%

**Q.** How did the inhibition at 10 µM turn out when O=C(Cn1ccc2ccc(N3Cc4cccc(Cl)c4C3=O)cc21)N1CCC2(CCN(c3ccncc3)CC2)C1 [Compound G-12, 7-Chloro-2-(1-(2-oxo-2-(8-(pyridin-4-yl)-2,8-diazaspiro[4.5]decan-2-yl)ethyl)-1H-indol-6-yl)isoindolin-1-one] was run?
**A.** 98%

**Q.** Which inhibition at 10 µM does the source give for COc1cc(C)c(S(=O)(=O)Nc2cccc3ccn(CC(=O)N4CCC5(CC4)CC(c4ccncc4)=NO5)c23)c(C)c1 [Compound G-13, 4-Methoxy-2,6-dimethyl-N-(1-(2-oxo-2-(3-(pyridin-4-yl)-1-oxa-2,8-diazaspiro[4.5]dec-2-en-8-yl)ethyl)-1H-indol-7-yl)benzenesulfonic acid amide] here?
**A.** 73%
